“Also recorded” adds a separate entry of the source.
Experiments:
[1] = system: BT system [CD19^+ B cells and PBMC+(a-IgM and TCR ligands)]; experiment: BioMAP BT system; type: cell-based, Human
Text: (§1) In this study LMW-DS was characterized by profiling in the BioMAP® Diversity PLUS panel. The BioMAP® panel consists of human primary cell-based systems designed to model different aspects of the human body in an in vitro format. The 12 systems in the BioMAP® Diversity PLUS panel (Table 32) allow test agent characterization in an unbiased way across a broad set of systems modeling various human disease states. The BioMA®P systems are constructed with one or more primary cell types from healthy human donors, with stimuli, such as cytokines or growth factors, added to capture relevant signaling networks that naturally occur in human tissue or pathological conditions. Vascular biology is modeled in both a Th1 (3C system) and a Th2 (4H system) inflammatory environment, as well as in a Th1 inflammatory state specific to arterial smooth muscle cells (CASM3C system). Additional systems recapitulate aspects of the systemic immune response including monocyte-driven Th1 inflammation (LPS system) or T cell stimulation (SAg system), chronic Th1 inflammation driven by macrophage activation (IMphg system) and the T cell-dependent activation of B cells that occurs in germinal centers (BT system). The BE3C system (Th1) and the BF4T system (Th2) represent airway inflammation of the lung, while the MyoF system models myofibroblast-lung tissue remodeling. Lastly, skin biology is addressed in the KF3CT system modeling Th1 cutaneous inflammation and the HDF3CGF system modeling wound healing.
(§2) Four concentrations of LMW-DS (150 nM, 440 nM, 1.3 μM, 4 μM) were investigated in the BioMAP® Diversity PLUS panel by Eurofins.
(§3) Cell types and stimuli used in each system are as follows: 3C system [HUVEC+(IL-1β, TNFα and IFNγ)], 4H system [HUVEC+(IL-4 and histamine)], LPS system [PBMC and HUVEC+LPS (TLR4 ligand)], SAg system [PBMC and HUVEC+TCR ligands], BT system [CD19^+ B cells and PBMC+(a-IgM and TCR ligands)], BF4T system [bronchial epithelial cells and HDFn+(TNFα and IL-4)], BE3C system [bronchial epithelial cells+(IL-1β, TNFα and IFNγ)], CASM3C system [coronary artery smooth muscle cells+(IL-1β, TNFα and IFNγ)], HDF3CGF system [HDFn+(IL-1β, TNFα, IFNγ, EGF, bFGF and PDGF-BB)], KF3CT system [keratinocytes and HDFn+(IL-1β, TNFα, IFNγ and TGFβ)], MyoF system [differentiated lung myofibroblasts+(TNFα and TGFβ)] and /Mphg system [HUVEC and M1 macrophages+Zymosan (TLR2 ligand)].
Systems are derived from either single cell types or co-culture systems. Adherent cell types are cultured in 96 or 384-well plates until confluence, followed by the addition of PBMC (SAg and LPS systems). The BT system consists of CD19+ B cells co-cultured with PBMC and stimulated with a BCR activator and low levels of TCR stimulation. Test agents prepared in either DMSO (small molecules; final concentration 0.1%) or PBS (biologics) are added at the indicated concentrations 1-hr before stimulation, and remain in culture for 24-hrs or as otherwise indicated (48-hrs, MyoF system; 72-hrs, BT system (soluble readouts); 168-hrs, BT system (secreted IgG)). Each plate contains drug controls (e.g., legacy control test agent colchicine at 1.1 μM), negative controls (e.g., non-stimulated conditions) and vehicle controls (e.g., 0.1% DMSO) appropriate for each system. Direct ELISA is used to measure biomarker levels of cell-associated and cell membrane targets. Soluble factors from supernatants are quantified using either HTRF® detection, bead-based multiplex immunoassay or capture ELISA. Overt adverse effects of test agents on cell proliferation and viability (cytotoxicity) are detected by sulforhodamine B (SRB) staining, for adherent cells, and alamarBlue® reduction for cells in suspension. For proliferation assays, individual cell types are cultured at subconfluence and measured at time points optimized for each system (48-hrs: 3C and CASM3C systems; 72-hrs: BT and HDF3CGF systems; 96-hrs: SAg system). […]

[2] = system: human primary cell-based systems; experiment: BioMAP Diversity PLUS panel (whole panel, profile and similarity analysis)
Text: as §1
Each test agent generates a signature BioMAP® profile that is created from the changes in protein biomarker readouts within individual system environments. Biomarker readouts (7-17 per system) are selected for therapeutic and biological relevance, are predictive for disease outcomes or specific drug effects and are validated using agents with known mechanism of action (MoA). Each readout is measured quantitatively by immune-based methods that detect protein, e.g., ELISA, or functional assays that measure proliferation and viability. BioMAP® readouts are diverse and include cell surface receptors, cytokines, chemokines, matrix molecules and enzymes. In total, the BioMAP® Diversity PLUS panel contains 148 biomarker readouts that capture biological changes that occur within the physiological context of the particular BioMAP® system.
as §2
Human primary cells in BioMAP systems are used at early passage (passage 4 or earlier) to minimize adaptation to cell culture conditions and preserve physiological signaling responses. All cells are from a pool of multiple donors (n=2-6), commercially purchased and handled according to the recommendations of the manufacturers. Human blood derived CD14^+ monocytes are differentiated into macrophages in vitro before being added to the /Mphg system. Abbreviations are used as follows: Human umbilical vein endothelial cells (HUVEC), Peripheral blood mononuclear cells (PBMC), Human neonatal dermal fibroblasts (HDFn), B cell receptor (BCR), T cell receptor (TCR) and Toll-like receptor (TLR).
as §3
Systems are derived from either single cell types or co-culture systems. […]

For “low molecular weight dextran sulfate [LMW-DS]”, which IL-17A [1] is on record?
Its IL-17A is “decreased”.

And the IL-17F [1]?
The IL-17F was “decreased”.

And the “antiproliferative effects on B cells” value [1]?
Its value is “without any antiproliferative effects”.

And the sIgG [1]?
The sIgG was “decreased”.

And the Decreased biomarker activity ([1]; BT system)?
Its Decreased biomarker activity is “sIgG, sIL-17F”.

And the Increased biomarker activity ([1]; BT system)?
Its Increased biomarker activity is “sIL-17A”.

And the CD69 ([2]; 150 nM to 4 μM)?
Its CD69 is “increased”.

What about the EGFR ([2]; 150 nM to 4 μM) of the same substance?
The EGFR was “increased”.

And the “Eotaxin 3 (Eot3)” value ([2]; 150 nM to 4 μM)?
Its value is “increased”.

And the I-TAC ([2]; 150 nM to 4 μM)?
Its I-TAC is “decreased”.

What about the IL-8 ([2]; 150 nM to 4 μM) of the same substance?
The IL-8 was “increased”.

And the IP-10 ([2]; 150 nM to 4 μM)?
Its IP-10 is “decreased”.

What about the M-CSF ([2]; 150 nM to 4 μM) of the same substance?
The M-CSF was “decreased”.

What about the MCP-1 ([2]; 150 nM to 4 μM) of the same substance?
The MCP-1 was “decreased”.

And the MIG ([2]; 150 nM to 4 μM)?
The MIG was “decreased”.

What about the MMP-1 ([2]; 150 nM to 4 μM) of the same substance?
The MMP-1 was “increased”.

And the PAI-1 ([2]; 150 nM to 4 μM)?
Its PAI-1 is “increased”.

What about the VCAM-1 ([2]; 150 nM to 4 μM) of the same substance?
Its VCAM-1 is “decreased”.

And the “cytotoxicity for human primary cells” value ([2]; 150 nM to 4 μM)?
Its value is “not cytotoxic; also recorded: noncytotoxic”.

And the sTNFα ([2]; 150 nM to 4 μM)?
The sTNFα was “decreased”.

What about the “secreted immunoglobulin G (sIgG)” value ([2]; 150 nM to 4 μM) of the same substance?
The value was “decreased”.

What about the “thrombomodulin (TM)” value ([2]; 150 nM to 4 μM) of the same substance?
The value was “increased”.

What about the uPAR ([2]; 150 nM to 4 μM) of the same substance?
Its uPAR is “increased”.

And the “annotated readouts in BioMAP profile” value ([2]; 150 nM, 440 nM, 1.3 μM, 4 μM)?
The value was 25.

What about the “proliferation of human primary endothelial cells” value ([2]; top concentration only (4 μM)) of the same substance?
The value was “modestly and selectively antiproliferative”.
